According to US20260283990A1, “COMPOUNDS FOR TREATING RETT SYNDROME AND OTHER DISORDERS” (UNRAVEL BIOSCIENCES, INC., priority 2023, published 2026):
Entries after “also recorded” stand apart in the source; their conditions may differ. Like-named read-outs stand apart in the source and are kept apart here. Square brackets hold non-standard residues; d marks the D form. Peptide text beside a SMILES is read from it. αMeP = C[C@@]1(C(=O)O)CCCN1

What was measured:
RTT tadpoles (MeCP2 KD) = test: Tadpole tracking system: swimming behavior of RTT (MeCP2 KD) tadpoles; assay type: in vivo, Xenopus; conditions: for swimming pattern of treated RTT tadpoles: n=5 per dish
Protocol: FIGS. 4A-4F. FIG. 4A) Occupation density plot from tracking tadpoles swimming and resting locations over a 10-minute recording session (n=5 per 10 ml dish, at 30 frames per seconds), where high density means the tadpoles where recorded at that XY coordinate most frequently. FIG. 4A) wild-type tadpoles (WT) normal behavior is to swim along the edge of the dish in an area termed the “outer area”, while the area within the white center circle is termed the “inner area” and is mostly dark. […] Additionally, RTT tadpoles cover less distance in the outer area, preferring to cross the inner area. FIG. 4C) example of multiple parameters derived from the tracking system, highlighting metrics corresponding to behavioral phenotypes. FIG. 4D) one such metric of epoch-based entropy which captures information about the swimming behavior over a recording session and how a group diverges from the others, in this case indicating favorable improvement in RTT tadpole symptoms treated with RVL002 (epoch=15-second). FIG. 4E) one such metric is the inner area circular swimming. Locomotor assays is commonly used in mouse model of neurological diseases, it can also assess the behavior in tadpole models. Both vorinostat and RVL002 reduced the average inner dish circular swimming behavior in KD tadpoles compared to vehicle controls.
(§1) Briefly, Xenopus embryos at the 4-cell stage were microinjected with Cas9 protein and guide RNA complex aimed at 3 sites of the MeCP2 gene corresponding to DNA binding and the mutation locations of the most severe patient cases. Embryos could develop into free-swimming tadpoles, and no effect on viability was observed relative to controls. Tadpoles presented a spectrum of behavioral phenotypes, including seizures. qPCR analysis confirmed a range of MeCP2 KO of 5-95% of the cells, and immunostaining of tissue sections indicated mosaic and overall reduction of MeCP2 protein levels and a-tubulin acetylation (Novak et al. 2022). Based on seizure and behavioral screens in RTT tadpoles, we evaluate the tolerability and efficacy of any number of predicted compounds. The top performing drug is vorinostat, a hydroxamic acid pan-Histone Deacetylase inhibitor (HDACi), approved for cutaneous T cell lymphoma (Novak et al., 2022). […] These six scores are then summed to provide a cumulative severity score from 0-12 (Guy et al., 2001, 2007).
(§2) Using our tadpole tracking system, we evaluated the effect of vorinostat and RVL002 on WT and RTT tadpoles swimming behavior (FIGS. 4A-4F). WT tadpoles spend most of the time swimming along the outside of the dish and only occasionally cross through the center of the dish, while RTT tadpoles swim more erratically and tend to dart through the center of the dish and stop more frequently (FIG. 4A-4B, n=5 per dish). These abnormal swimming patterns could be related to motor irregularities and seizures seen in human RTT patients. […] The entropy captures deviations in swimming behavior, including distance and area explored. […] We compared the gene expression signatures of vorinostat- and RVL002-treated tadpole RTT model animals and wild type controls. In wild type animals, 100% of genes with significant expression changes (fold change >2, p<0.05) due to vorinostat treatment were accounted for by RVL002 treatment. In RTT animals, RVL002 replicated 92.5% of gene expression changes.

MeCP2-/y mice [1] = test: Rett cumulative severity score in MeCP2-/y mice treated with RVL002; assay type: in vivo; conditions: 50 mg/kg P.O. daily after onset of severe symptoms (P34), vs vehicle
Protocol: (§3) FIGS. 5A-5B. Mice (KO MeCP2^−/y or WT littermates) were treated with 50 mg/kg P.O. RVL002 daily following the onset of severe symptoms at 34 days post-natal (P34).
(§4) Briefly, Xenopus embryos at the 4-cell stage were microinjected with Cas9 protein and guide RNA complex aimed at 3 sites of the MeCP2 gene corresponding to DNA binding and the mutation locations of the most severe patient cases. Embryos could develop into free-swimming tadpoles, and no effect on viability was observed relative to controls. Tadpoles presented a spectrum of behavioral phenotypes, including seizures. qPCR analysis confirmed a range of MeCP2 KO of 5-95% of the cells, and immunostaining of tissue sections indicated mosaic and overall reduction of MeCP2 protein levels and a-tubulin acetylation (Novak et al. 2022). Based on seizure and behavioral screens in RTT tadpoles, we evaluate the tolerability and efficacy of any number of predicted compounds. The top performing drug is vorinostat, a hydroxamic acid pan-Histone Deacetylase inhibitor (HDACi), approved for cutaneous T cell lymphoma (Novak et al., 2022). […]
Mice (MeCP2-/y or WT littermates) were treated with 50 mg/kg P.O. RVL002 daily following the onset of severe symptoms as determined by the Rett cumulative severity scoring system (Guy et al., 2001, 2007).

[2] = tested on: brain and muscle gene networks and pathways; test: RNAseq of brain and muscle of dosed mice analysed with BioNav / Reactome; assay type: in vivo, C57B/L6 mice
Protocol: FIGS. 2A-2B. BioNav™ plots organized by chemical structure similarity of 40,000 compounds. Differential scores of predicted drugs mimicking vorinostat- or RVLOO2-dosed mouse brain (FIG. 2A) or femoral muscle (FIG. 2B) are plotted. Cluster of HDAC inhibitors is circled (FIG. 2B).
FIGS. 3A-3E. […] Genes associated with network level changes in mice treated with vorinostat or RVL002 were analyzed and sorted according to Reactome.org pathways (91). RVL002 engages pathways in the brain and muscle tissues similar to those resulting from vorinostat dosing (FIG. 3A). […] RVL002 engages MeCP2 pathways in the brain and muscle tissues (FIG. 3E).
Brain and muscle tissues from these mice were submitted to RNA sequencing (RNAseq) and analyzed on our BioNav™ generated from the network model of 40,000 compounds with transcriptomic data. […] By taking our calculated interacting gene sets we identified genes and networks unique to RVL002 (FIGS. 3A-3E). The gene expression profiles of the brains of mice treated with vorinostat is largely due to its highly brain-permeable metabolite and this profile is closely mimicked by RVL002 while RVL002 increased bioavailability and biodistribution is reflected in a proportionally more extensive number of genes whose expression levels are altered. The top 4 pathways are associated with MeCP2 despite using wild-type C57B/L6 mice (Table 2), and several other pathways associated with MeCP2 are identified, albeit with lower statistical significance (Table 3).

mecp2-acss3-2KD tadpoles = test: Tadpole tracking: double knockdown of MeCP2 and ACSS3 (mecp2-acss3-2KD); assay type: in vivo, Xenopus laevis; conditions: 50 μM every other day from 6 dpf, recorded at 15 dpf
Protocol: FIGS. 6A-6C. […] Wild-type (WT), MeCP2 knockdown (mecp2-KD) and double knockdown of MeCP2 and ACSS3 (mecp2-acss3-2KD) tadpoles, were compared in the presence of absence of 50 μM RVL002 added to the swimming media every other day since 6 dpf.
Using our tadpole tracking system, we evaluated the effect of RVL002 on WT, RTT and tadpoles deficient for both MeCP2 and ACSS3 (FIGS. 6A-6C).

[3] = tested on: tadpole RTT model animals and wild type controls; test: Gene expression signatures of vorinostat- and RVL002-treated tadpoles; assay type: in vivo, Xenopus
Text: as §2

[4] = Pharmacokinetic study in C57BL/6J mice (plasma and tissues); assay type: in vivo
HDAC = test: HDACi activity (statement, no method)
RTT tadpoles = test: Viability measurement in WT and RTT tadpoles; assay type: in vivo, Xenopus; conditions: RVL002 100 uM compared with vorinostat 50 uM, n=10 per condition
MeCP2-/y mice [5] = test: Optomotor assay in MeCP2-/y mice treated with RVL002; assay type: in vivo; conditions: 50 mg/kg P.O. daily from P34
Protocol: as §3

Mecp2-null male mice [6] = conditions: cited from earlier work; for Rett cumulative severity score, head-to-head comparison: older mice with extensive symptoms prior to treatment; for efficacy when starting treatment after the onset of symptoms: start P36
RTT tadpole model = test: Drug screen in the RTT tadpole model (behavior, survival, seizures, toxicity); assay type: in vivo, Xenopus; conditions: seizures as readout
Text: as §1
RTT tadpole transcriptomes were compared against wild-type (WT) sibling transcriptomes using our proprietary BioNav™ software, which ranked the entirety of compounds from the National Institute of Health (NIH) Library of Integrated Network-Based Cellular Signatures (LINCS) database (Keenan et al., 2018) that were predicted to shift a RTT state to a healthy state. The top candidates were downselected to include only FDA-approved drugs and screened in the RTT tadpole model using behavior, survival, and seizures as an efficacy readout, together with toxicity phenotypes. […] Vorinostat was selected for more detailed evaluation in tadpoles and mouse models. […] Ciliary morphology was also normalized by drug treatment across the entire body, and vorinostat reduced Ib4+ inflammatory cells in the GI tract (Novak et al., 2022).

[7] = tested on: RTT models (MeCP2 deficit); conditions: cited from earlier work
microtubule = test: Microtubule polymerization assays; assay type: biochemical
[8] = Pharmacokinetic (PK) assay of vorinostat, oral vs. IP; assay type: in vivo
tadpole proteome = conditions: whole organism Thermal Proteome Profiling; cited from earlier work
Mecp2-null male mice [9] = test: Vorinostat and trofinetide in the MeCP2-null mouse model; assay type: in vivo; conditions: daily IP from P30
Text: as §4
Using trofinetide as a positive control, we evaluated the feasibility of initiating drug dosing starting at 30 days post-natal (P30), unlike the majority of RTT pre-clinical studies starting before the onset of symptoms. […] We evaluated the comparative efficacy of oral vs. IP dosing of vorinostat in MeCP2-null mice starting at 36 days post-natal (P36), well after the onset of symptoms, to better mimic clinical presentation of RTT patients.

Compound: O=C(O)CCC(=O)Nc1ccccc1 [RVL002, succinanilic acid]
- reduction in inner dish circular swimming compared to vehicle dosed KDs (RTT tadpoles (MeCP2 KD); RTT KD tadpoles, 50 μM): 78%
- epoch-based entropy of swimming behavior (RTT tadpoles (MeCP2 KD); RTT tadpoles, 15-second epoch): rescue the behavior of RTT tadpoles
- swimming pattern of treated RTT tadpoles (RTT tadpoles (MeCP2 KD); RTT tadpoles): adopt more circular motion and stop less frequently
- Rett cumulative severity score (MeCP2-/y mice [1]): delayed the progression in severity of behavioral and physiological phenotypes; also recorded: significantly reduce the severity of the Rett syndrome phenotypes
- muscle RNAseq differences in the cluster of HDAC inhibitors (BioNav) ([2]; mouse femoral muscle, 50 mg/kg p.o.): acts through non-HDAC-mediated pathways
- Reactome pathways of genes unique/responding to RVL002 ([2]; wild-type mice, brain and muscle (Tables 2, 3)): MeCP2-pathway-mediated effect
- response across exploratory behavior, swimming velocity and number of tadpoles in a school (mecp2-acss3-2KD tadpoles): did not respond
- gene expression changes of vorinostat replicated by RVL002 ([3]; RTT animals): 92.5%
- genes with significant expression changes due to vorinostat treatment accounted for by RVL002 treatment ([3]; wild type animals, fold change >2, p<0.05): 100%
- RVL002/vorinostat Ratio of T1/2 ([4]; mouse, in vivo): 2.6
- RVL002/vorinostat Ratio of Tmax ([4]; mouse, in vivo): 0.8
- biodistribution, crossing the blood brain barrier ([4]; mouse, in vivo, 50 mg/kg): better biodistribution including in crossing the blood brain barrier
- AUC(0-inf) ([4]; mouse, in vivo, ip, 50 mg/kg): 11600 ng·h/mL
- AUC(0-t) ([4]; mouse, in vivo, ip, 50 mg/kg): 11800 ng·h/mL
- Cmax ([4]; mouse, in vivo, ip, 50 mg/kg): 12300 ng/mL
- Tmax ([4]; mouse, in vivo, ip, 50 mg/kg): 0.3 h
- half-life ([4]; mouse, in vivo, ip, 50 mg/kg): 3.3 h
- HDACi activity (HDAC): lacks HDACi activity
- tolerability and viability of RTT tadpoles (RTT tadpoles): well tolerated and improves the viability of RTT tadpoles
- optomotor assay (MeCP2-/y mice [5]): delayed the progression in severity of behavioral and physiological phenotypes

Compound: C[C@@]1(C(=O)N[C@@H](CCC(=O)O)C(=O)O)CCCN1C(=O)CN [Trofinetide, trofinetide] (H-Gly-[αMeP]-Glu-OH)
- Rett cumulative severity score, head-to-head comparison (Mecp2-null male mice [6]): did not improve the cumulative severity score
- efficacy when starting treatment after the onset of symptoms (Mecp2-null male mice [6]; trofinetide): failed to show efficacy
- reversal of RTT symptoms in RTT tadpole screen (RTT tadpole model): showed efficacy, albeit lower than the predicted drugs

Compound: O=C(CCCCCCC(=O)Nc1ccccc1)NO [Vorinostat, vorinostat]
- reduction in average inner dish swimming compared to vehicle dosed KDs (RTT tadpoles (MeCP2 KD); RTT KD tadpoles, 5 μM): 42%
- swimming pattern of treated RTT tadpoles (RTT tadpoles (MeCP2 KD); RTT tadpoles): patterns suggestive of darting and seizure are still observed
- abnormal cilia morphology in the olfactory bulb ([7]; MeCP2 deficit): reversed
- Ib4+ inflammatory cells in the GI tract ([7]; RTT models): reduced
- a-tubulin acetylation in brain and elsewhere in the body ([7]; RTT models): normalized
- efficacy when starting treatment after the onset of symptoms (Mecp2-null male mice [6]; IP delivery): failed to show efficacy
- Rett cumulative severity score, head-to-head comparison (Mecp2-null male mice [6]): effective improvement
- efficacy when starting treatment after the onset of symptoms (Mecp2-null male mice [6]; oral dosing): improved efficacy
- overlap of vorinostat with RVL002 in HDAC associated pathways ([2]; muscle tissues (FIG. 3D)): 97.3%
- reversal of RTT symptoms in RTT tadpole screen (RTT tadpole model): stronger reversal of RTT symptoms at nontoxic concentrations
- Tmax ([4]; C57BL/6J mice, 50 mg/kg intraperitoneally, mean): 0.3 h
- biodistribution, crossing the blood brain barrier ([4]; mouse, in vivo, 50 mg/kg): does not efficiently cross the blood brain barrier
- AUC(0-inf) ([4]; mouse, in vivo, ip, 50 mg/kg): 640 ng·h/mL
- AUC(0-t) ([4]; mouse, in vivo, ip, 50 mg/kg): 632 ng·h/mL
- Cmax ([4]; mouse, in vivo, ip, 50 mg/kg): 713 ng/mL
- half-life ([4]; mouse, in vivo, ip, 50 mg/kg): 1.3 h
- microtubule polymerization (microtubule): mild microtubule polymerization effects
- release profile after oral dosing [8]: more sustained release of vorinostat at lower concentrations
- α- and β-tubulins, acetyl CoA synthetase 3, ribosome protein S6 as targets (tadpole proteome): significant, direct targets
- efficacy by Rett cumulative severity scoring system, 50 vs 100 mg/kg (Mecp2-null male mice [9]): better efficacy at 50 mg/kg
- Y-maze performance, brain and GI tubulin acetylation normalization, inflammatory cytokine levels, colon goblet cells inflammation (Mecp2-null male mice [9]; vorinostat vs trofinetide 75 mg/kg): outperformed trofinetide

Compound: ivermectin
- reversal of RTT symptoms in RTT tadpole screen (RTT tadpole model): stronger reversal of RTT symptoms at nontoxic concentrations
- microtubule polymerization (microtubule): mild microtubule polymerization effects
- α- and β-tubulins, acetyl CoA synthetase 3, ribosome protein S6 as targets (tadpole proteome): significant, direct targets
